Values joined by “and” are separate entries in the source; they are usually repeats but may differ in a detail not shown here. Equal values may be shown once.
Tests used:
Experiment in all cases: Kinase inhibitor specificity profiling (Reaction Biology Corporation)
Assay type in all cases: biochemical
Design in all cases: % Enzyme Activity (relative to DMSO controls): concentration or dose not given beside the values
[1] = target: T1, panel of 370 protein kinases (Homo sapiens, UniProt O00311); conditions: 2 h, read-out: % Enzyme Activity (relative to DMSO controls), kinase CDC7/DBF4
T1 construct: purchased Reaction Biology Corporation (assay service)

[2] = target: T2, panel of 370 protein kinases (Homo sapiens, UniProt P08581); conditions: kinase c-MET
T2 construct: purchased Reaction Biology Corporation (assay service)

[3] = target: T3, panel of 370 protein kinases (Homo sapiens, UniProt P10398); conditions: 2 h, kinase ARAF; read-out: % Enzyme Activity (relative to DMSO controls)
T3 construct: purchased Reaction Biology Corporation (assay service)

[4] = target: T4, panel of 370 protein kinases (Homo sapiens, UniProt P16591); conditions: 2 h, kinase FER; read-out: % Enzyme Activity (relative to DMSO controls)
T4 construct: purchased Reaction Biology Corporation (assay service)

[5] = target: T5, panel of 370 protein kinases (Homo sapiens, UniProt P21709); conditions: 2 h, kinase EPHA1; read-out: % Enzyme Activity (relative to DMSO controls)
T5 construct: purchased Reaction Biology Corporation (assay service)

[6] = target: T6, panel of 370 protein kinases (Homo sapiens, UniProt P22612); conditions: 2 h, kinase PKAcg; read-out: % Enzyme Activity (relative to DMSO controls)
T6 construct: purchased Reaction Biology Corporation (assay service)

[7] = target: T7, panel of 370 protein kinases (Homo sapiens, UniProt P43403); conditions: 2 h, kinase ZAP70; read-out: % Enzyme Activity (relative to DMSO controls)
T7 construct: purchased Reaction Biology Corporation (assay service)

[8] = target: T8, panel of 370 protein kinases (Homo sapiens, UniProt P45983); conditions: kinase JNK1
T8 construct: purchased Reaction Biology Corporation (assay service)

[9] = target: T9, panel of 370 protein kinases (Homo sapiens, UniProt P46734); conditions: 2 h, kinase MEK3; read-out: % Enzyme Activity (relative to DMSO controls)
T9 construct: purchased Reaction Biology Corporation (assay service)

[10] = target: T10, panel of 370 protein kinases (Homo sapiens, UniProt P49137); conditions: 2 h, kinase MAPKAPK2; read-out: % Enzyme Activity (relative to DMSO controls)
T10 construct: purchased Reaction Biology Corporation (assay service)

[11] = target: T11, panel of 370 protein kinases (Homo sapiens, UniProt P57078); conditions: 2 h, kinase RIPK4; read-out: % Enzyme Activity (relative to DMSO controls)
T11 construct: purchased Reaction Biology Corporation (assay service)

[12] = target: T12, panel of 370 protein kinases (Homo sapiens, UniProt Q13164); conditions: 2 h, kinase ERK5/MAPK7; read-out: % Enzyme Activity (relative to DMSO controls)
T12 construct: purchased Reaction Biology Corporation (assay service)

[13] = target: T13, panel of 370 protein kinases (Homo sapiens, UniProt Q15303); conditions: 2 h, kinase ERBB4/HER4; read-out: % Enzyme Activity (relative to DMSO controls)
T13 construct: purchased Reaction Biology Corporation (assay service)

[14] = target: T14, panel of 370 protein kinases (Homo sapiens, UniProt Q15569); conditions: 2 h, kinase TESK1; read-out: % Enzyme Activity (relative to DMSO controls)
T14 construct: purchased Reaction Biology Corporation (assay service)

[15] = target: T15, panel of 370 protein kinases (Homo sapiens, UniProt Q16832); conditions: 2 h, kinase DDR2; read-out: % Enzyme Activity (relative to DMSO controls)
T15 construct: purchased Reaction Biology Corporation (assay service)

[16] = target: T16, panel of 370 protein kinases (Homo sapiens, UniProt Q52WX2); conditions: 2 h, kinase SBK1; read-out: % Enzyme Activity (relative to DMSO controls)
T16 construct: purchased Reaction Biology Corporation (assay service)

[17] = target: T17, panel of 370 protein kinases (Homo sapiens, UniProt Q8N4C8); conditions: 2 h, kinase MINK/MINK1; read-out: % Enzyme Activity (relative to DMSO controls)
T17 construct: purchased Reaction Biology Corporation (assay service)

[18] = target: T18, panel of 370 protein kinases (Homo sapiens, UniProt Q9H2G2); conditions: 2 h, kinase SLK/STK2; read-out: % Enzyme Activity (relative to DMSO controls)
T18 construct: purchased Reaction Biology Corporation (assay service)

[19] = target: T19, panel of 370 protein kinases (Homo sapiens, UniProt Q9NRH2); conditions: 2 h, kinase SNRK; read-out: % Enzyme Activity (relative to DMSO controls)
T19 construct: purchased Reaction Biology Corporation (assay service)

[20] = target: T20, panel of 370 protein kinases (Homo sapiens, UniProt Q9UL54); conditions: 2 h, kinase TAOK2/TAO1; read-out: % Enzyme Activity (relative to DMSO controls)
T20 construct: purchased Reaction Biology Corporation (assay service)

[21] = target: T21, panel of 370 protein kinases (Homo sapiens, UniProt Q9Y3S1); conditions: 2 h, kinase WNK2; read-out: % Enzyme Activity (relative to DMSO controls)
T21 construct: purchased Reaction Biology Corporation (assay service)

T2 sequence (P08581 25-1390): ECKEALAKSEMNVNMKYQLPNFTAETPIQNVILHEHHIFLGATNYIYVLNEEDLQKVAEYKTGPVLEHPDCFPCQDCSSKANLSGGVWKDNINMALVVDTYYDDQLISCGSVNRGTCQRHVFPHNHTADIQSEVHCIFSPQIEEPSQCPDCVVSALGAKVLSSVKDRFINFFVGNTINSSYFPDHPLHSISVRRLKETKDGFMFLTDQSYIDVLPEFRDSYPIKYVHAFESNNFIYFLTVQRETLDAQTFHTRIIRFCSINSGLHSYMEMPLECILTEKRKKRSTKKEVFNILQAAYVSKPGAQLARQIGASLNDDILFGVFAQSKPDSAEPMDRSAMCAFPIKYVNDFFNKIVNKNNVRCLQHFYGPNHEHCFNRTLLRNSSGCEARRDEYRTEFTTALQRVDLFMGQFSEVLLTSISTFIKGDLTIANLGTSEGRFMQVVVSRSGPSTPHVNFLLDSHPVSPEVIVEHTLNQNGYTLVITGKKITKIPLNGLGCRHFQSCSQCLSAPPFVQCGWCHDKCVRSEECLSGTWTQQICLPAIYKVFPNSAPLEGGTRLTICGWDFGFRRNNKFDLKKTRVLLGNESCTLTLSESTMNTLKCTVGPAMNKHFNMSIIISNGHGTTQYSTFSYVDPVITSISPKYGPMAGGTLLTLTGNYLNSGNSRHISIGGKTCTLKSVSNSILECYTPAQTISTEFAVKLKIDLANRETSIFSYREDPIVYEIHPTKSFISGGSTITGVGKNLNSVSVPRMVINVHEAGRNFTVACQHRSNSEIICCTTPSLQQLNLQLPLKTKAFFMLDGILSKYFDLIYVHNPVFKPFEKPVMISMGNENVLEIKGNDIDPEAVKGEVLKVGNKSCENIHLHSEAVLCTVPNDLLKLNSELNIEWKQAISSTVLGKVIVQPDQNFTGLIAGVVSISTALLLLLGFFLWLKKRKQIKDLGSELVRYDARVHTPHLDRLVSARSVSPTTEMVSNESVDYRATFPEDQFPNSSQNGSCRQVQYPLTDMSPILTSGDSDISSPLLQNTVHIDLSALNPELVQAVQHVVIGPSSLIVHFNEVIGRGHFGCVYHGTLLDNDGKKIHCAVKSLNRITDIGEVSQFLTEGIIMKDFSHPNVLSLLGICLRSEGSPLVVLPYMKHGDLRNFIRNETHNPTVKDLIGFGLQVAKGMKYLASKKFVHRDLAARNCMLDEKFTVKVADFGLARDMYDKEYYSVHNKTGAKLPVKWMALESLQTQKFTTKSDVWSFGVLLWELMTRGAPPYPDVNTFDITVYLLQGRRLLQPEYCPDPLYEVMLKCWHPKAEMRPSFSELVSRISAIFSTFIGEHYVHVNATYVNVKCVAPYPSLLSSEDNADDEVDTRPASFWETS
T8 sequence (P45983 whole entry): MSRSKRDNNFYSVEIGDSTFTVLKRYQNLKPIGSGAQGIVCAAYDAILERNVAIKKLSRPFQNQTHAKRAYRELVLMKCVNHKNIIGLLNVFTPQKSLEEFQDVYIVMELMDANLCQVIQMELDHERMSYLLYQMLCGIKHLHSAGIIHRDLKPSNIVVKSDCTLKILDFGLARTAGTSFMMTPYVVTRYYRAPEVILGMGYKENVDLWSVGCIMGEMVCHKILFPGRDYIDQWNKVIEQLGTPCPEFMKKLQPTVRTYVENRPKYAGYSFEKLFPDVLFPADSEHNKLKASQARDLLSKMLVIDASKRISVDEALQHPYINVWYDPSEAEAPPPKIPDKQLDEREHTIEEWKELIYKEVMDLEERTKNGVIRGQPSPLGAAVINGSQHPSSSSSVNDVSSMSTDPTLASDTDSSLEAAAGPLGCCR
T14 sequence (Q15569 whole entry): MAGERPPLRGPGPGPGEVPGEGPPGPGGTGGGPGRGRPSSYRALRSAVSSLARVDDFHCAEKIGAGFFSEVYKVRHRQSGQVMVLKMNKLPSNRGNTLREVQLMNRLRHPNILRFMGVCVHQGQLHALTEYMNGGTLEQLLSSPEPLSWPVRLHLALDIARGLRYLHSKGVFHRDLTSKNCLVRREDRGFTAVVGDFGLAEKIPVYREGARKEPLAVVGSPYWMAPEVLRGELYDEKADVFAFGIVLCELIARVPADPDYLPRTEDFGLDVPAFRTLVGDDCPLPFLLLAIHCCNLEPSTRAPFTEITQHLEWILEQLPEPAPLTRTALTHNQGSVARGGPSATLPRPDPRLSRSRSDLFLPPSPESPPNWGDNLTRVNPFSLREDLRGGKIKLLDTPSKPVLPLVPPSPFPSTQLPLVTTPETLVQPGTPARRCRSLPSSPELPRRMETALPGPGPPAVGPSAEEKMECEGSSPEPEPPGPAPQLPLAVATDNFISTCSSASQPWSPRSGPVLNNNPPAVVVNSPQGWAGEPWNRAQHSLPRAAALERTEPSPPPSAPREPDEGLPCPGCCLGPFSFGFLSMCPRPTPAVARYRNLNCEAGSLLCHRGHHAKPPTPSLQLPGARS
T16 sequence (Q52WX2 whole entry): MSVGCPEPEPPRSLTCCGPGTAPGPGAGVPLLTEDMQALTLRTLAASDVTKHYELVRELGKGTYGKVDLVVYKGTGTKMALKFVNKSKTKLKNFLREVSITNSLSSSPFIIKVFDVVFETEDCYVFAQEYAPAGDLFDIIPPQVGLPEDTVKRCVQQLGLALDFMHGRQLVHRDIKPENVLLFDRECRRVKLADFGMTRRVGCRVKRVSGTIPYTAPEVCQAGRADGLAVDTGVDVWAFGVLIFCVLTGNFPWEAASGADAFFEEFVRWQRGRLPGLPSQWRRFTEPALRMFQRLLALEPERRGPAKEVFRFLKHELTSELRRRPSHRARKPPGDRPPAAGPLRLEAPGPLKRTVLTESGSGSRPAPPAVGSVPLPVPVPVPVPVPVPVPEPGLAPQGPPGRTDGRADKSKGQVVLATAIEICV
T19 sequence (Q9NRH2 whole entry): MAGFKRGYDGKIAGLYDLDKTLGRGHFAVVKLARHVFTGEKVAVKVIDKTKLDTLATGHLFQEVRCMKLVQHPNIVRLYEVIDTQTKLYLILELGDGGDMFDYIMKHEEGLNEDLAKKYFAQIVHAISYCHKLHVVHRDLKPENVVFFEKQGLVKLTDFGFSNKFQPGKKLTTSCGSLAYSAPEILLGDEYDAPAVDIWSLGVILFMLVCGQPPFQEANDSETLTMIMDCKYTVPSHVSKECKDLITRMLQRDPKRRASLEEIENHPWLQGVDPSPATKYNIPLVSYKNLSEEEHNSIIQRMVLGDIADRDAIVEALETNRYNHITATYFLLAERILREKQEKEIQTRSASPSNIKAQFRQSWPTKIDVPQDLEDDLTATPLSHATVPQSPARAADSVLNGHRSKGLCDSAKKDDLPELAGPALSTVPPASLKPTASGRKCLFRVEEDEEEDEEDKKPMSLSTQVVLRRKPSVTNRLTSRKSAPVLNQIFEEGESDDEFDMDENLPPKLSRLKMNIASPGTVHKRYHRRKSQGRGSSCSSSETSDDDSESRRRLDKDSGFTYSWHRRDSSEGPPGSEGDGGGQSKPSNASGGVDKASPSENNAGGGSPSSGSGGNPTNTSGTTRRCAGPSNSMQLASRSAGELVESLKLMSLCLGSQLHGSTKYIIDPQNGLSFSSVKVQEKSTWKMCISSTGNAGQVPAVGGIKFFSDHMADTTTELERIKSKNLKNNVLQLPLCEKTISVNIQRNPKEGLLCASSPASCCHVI
T9 sequence (P46734 whole entry): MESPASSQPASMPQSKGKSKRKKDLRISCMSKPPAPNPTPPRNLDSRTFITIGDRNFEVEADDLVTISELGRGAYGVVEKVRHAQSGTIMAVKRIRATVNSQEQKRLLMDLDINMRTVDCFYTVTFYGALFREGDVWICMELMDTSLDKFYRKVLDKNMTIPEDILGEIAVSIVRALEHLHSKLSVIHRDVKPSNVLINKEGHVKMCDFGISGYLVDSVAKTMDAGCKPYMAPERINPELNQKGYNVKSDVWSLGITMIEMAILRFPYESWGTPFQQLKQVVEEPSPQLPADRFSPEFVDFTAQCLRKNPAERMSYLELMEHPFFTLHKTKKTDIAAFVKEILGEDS
T10 sequence (P49137 whole entry): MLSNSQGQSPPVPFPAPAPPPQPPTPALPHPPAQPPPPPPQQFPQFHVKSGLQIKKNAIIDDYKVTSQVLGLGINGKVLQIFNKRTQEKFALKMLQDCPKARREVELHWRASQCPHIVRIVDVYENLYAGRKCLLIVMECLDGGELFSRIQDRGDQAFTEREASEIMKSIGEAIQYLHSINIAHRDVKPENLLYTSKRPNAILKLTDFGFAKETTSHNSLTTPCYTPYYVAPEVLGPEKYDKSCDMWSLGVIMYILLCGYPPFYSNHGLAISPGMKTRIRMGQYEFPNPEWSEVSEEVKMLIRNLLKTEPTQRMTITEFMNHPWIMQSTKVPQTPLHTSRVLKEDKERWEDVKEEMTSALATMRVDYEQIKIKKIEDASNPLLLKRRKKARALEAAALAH
T3 sequence (P10398 whole entry): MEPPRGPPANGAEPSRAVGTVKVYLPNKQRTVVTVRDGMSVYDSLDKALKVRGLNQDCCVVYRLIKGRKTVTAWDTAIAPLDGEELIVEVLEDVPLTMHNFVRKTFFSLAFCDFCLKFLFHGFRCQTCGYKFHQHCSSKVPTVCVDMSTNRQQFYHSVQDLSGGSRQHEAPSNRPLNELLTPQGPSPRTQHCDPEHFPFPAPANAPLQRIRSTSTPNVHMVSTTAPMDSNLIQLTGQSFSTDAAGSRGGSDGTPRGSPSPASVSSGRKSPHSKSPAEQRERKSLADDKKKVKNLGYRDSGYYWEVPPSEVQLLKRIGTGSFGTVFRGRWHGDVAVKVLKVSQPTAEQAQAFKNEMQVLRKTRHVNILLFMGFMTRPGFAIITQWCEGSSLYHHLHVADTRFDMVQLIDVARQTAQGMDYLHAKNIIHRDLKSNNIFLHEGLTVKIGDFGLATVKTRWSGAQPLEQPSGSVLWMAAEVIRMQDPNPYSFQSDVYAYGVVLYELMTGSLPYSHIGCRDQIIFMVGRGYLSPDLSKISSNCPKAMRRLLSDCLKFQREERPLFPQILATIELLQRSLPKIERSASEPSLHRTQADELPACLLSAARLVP

Q: With `CCN1CCN(C(=O)c2ccc(Nc3ncc(F)c(-c4ccc5nc(N(C)C)sc5c4)n3)nc2)CC1` [YK-2-69] as the molecule, how does the remaining activity at 1 µM [1] read?
A: 121%

Q: What about the “% Enzyme Activity (relative to DMSO controls)” value [2] of the same molecule?
A: 79.77% and 77.94%

Q: And the remaining activity at 1 µM [3]?
A: 90.6%

Q: What about the remaining activity at 1 µM [4] of the same molecule?
A: 106%

Q: And the remaining activity at 1 µM [5]?
A: 109%

Q: And the remaining activity at 1 µM [6]?
A: 96.9%

Q: And the remaining activity at 1 µM [7]?
A: 87.8%

Q: What about the “% Enzyme Activity (relative to DMSO controls)” value [8] of the same molecule?
A: 71.84% and 70.88%

Q: What about the remaining activity at 1 µM [9] of the same molecule?
A: 103%

Q: What about the remaining activity at 1 µM [10] of the same molecule?
A: 83.2%

Q: What about the remaining activity at 1 µM [11] of the same molecule?
A: 92%

Q: What about the remaining activity at 1 µM [12] of the same molecule?
A: 104%

Q: And the remaining activity at 1 µM [13]?
A: 88.5%

Q: What about the remaining activity at 1 µM [14] of the same molecule?
A: 108%

Q: What about the remaining activity at 1 µM [15] of the same molecule?
A: 103%

Q: What about the remaining activity at 1 µM [16] of the same molecule?
A: 103%

Q: And the remaining activity at 1 µM [17]?
A: 100%

Q: What about the remaining activity at 1 µM [18] of the same molecule?
A: 94.5%

Q: What about the remaining activity at 1 µM [19] of the same molecule?
A: 95.4%

Q: And the remaining activity at 1 µM [20]?
A: 97%

Q: And the remaining activity at 1 µM [21]?
A: 99.9%
